The target in the test is Lysine-specific demethylase 5A (Homo sapiens, UniProt P29375). As to the kind of experiment: Fluorescence Polarization Binding Assay.

For two compounds, IC50 results are on record in BindingDB's records for doi:10.1021/bi3009278 (University of Wisconsin, 2012).

Lysine-specific demethylase 5A, sequence (P29375 whole entry): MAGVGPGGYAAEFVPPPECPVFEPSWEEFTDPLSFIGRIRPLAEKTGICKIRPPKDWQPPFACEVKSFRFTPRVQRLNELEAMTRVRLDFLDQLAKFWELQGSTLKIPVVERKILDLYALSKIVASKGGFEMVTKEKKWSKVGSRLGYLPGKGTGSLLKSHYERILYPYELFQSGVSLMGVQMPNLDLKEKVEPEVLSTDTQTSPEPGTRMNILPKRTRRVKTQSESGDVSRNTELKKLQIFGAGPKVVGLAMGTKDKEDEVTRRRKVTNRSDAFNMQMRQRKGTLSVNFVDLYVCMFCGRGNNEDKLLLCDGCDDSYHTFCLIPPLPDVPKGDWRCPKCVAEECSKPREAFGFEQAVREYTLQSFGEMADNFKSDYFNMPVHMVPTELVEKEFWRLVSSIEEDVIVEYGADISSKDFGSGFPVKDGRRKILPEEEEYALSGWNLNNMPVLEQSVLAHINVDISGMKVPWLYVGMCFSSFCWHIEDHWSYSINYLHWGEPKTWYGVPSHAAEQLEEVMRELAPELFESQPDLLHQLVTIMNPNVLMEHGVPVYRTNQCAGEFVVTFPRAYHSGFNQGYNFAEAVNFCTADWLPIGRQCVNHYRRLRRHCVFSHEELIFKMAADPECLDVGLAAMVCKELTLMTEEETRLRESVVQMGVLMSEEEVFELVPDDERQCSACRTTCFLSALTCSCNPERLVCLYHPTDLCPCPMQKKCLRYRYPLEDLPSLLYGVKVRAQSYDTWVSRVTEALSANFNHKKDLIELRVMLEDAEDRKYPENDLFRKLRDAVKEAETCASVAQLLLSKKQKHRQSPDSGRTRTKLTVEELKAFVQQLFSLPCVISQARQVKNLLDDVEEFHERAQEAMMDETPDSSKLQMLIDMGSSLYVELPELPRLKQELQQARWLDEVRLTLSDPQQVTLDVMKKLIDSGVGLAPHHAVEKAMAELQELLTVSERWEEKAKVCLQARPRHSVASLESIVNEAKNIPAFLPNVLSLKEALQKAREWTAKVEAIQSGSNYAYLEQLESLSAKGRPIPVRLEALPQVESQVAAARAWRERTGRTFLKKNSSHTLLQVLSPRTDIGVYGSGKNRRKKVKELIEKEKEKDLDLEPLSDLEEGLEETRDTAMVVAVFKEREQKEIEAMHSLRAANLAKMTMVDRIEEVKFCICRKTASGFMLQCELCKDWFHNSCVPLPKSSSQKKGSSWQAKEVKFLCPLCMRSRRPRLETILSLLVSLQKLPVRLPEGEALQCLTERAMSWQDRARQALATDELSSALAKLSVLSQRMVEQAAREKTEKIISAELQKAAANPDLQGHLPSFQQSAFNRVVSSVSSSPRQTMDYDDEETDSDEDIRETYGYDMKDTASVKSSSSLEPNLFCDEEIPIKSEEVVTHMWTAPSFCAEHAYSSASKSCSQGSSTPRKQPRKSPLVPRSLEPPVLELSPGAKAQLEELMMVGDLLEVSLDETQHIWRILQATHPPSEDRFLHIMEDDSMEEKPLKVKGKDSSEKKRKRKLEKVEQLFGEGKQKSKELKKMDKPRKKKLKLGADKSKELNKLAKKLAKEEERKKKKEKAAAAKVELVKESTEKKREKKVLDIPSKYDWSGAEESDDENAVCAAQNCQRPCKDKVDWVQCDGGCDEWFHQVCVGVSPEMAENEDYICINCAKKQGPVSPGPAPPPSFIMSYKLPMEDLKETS

As to `CCCCc1oc2ccccc2c1C(=O)c1cc(I)c(OCCN)c(I)c1` [Di-N-desethylaminodarone], the IC50 was found to be 26 µM.

Turning to `CCCCc1oc2ccccc2c1C(=O)c1cc(I)c(OCC[N+](C)(C)C)c(I)c1` [WAG-003], the IC50 is 30 µM.
